According to ChEMBL document CHEMBL3826966, “A chromatography-free isolation of rohitukine from leaves of Dysoxylum binectariferum: Evaluation for in vitro cytotoxicity, Cdk inhibition and physicochemical properties” (Bioorg Med Chem Lett, 2016):

Columns and labels:
[1] = target: Serine/threonine-protein kinase PAK 6 (Homo sapiens) (UniProt Q9NQU5); test: Inhibition of human PAK6 (2 to 681 residues) assessed as remaining enzyme activity at 50 uM after 30 mins by 33P-ATP filter-binding assay
[2] = target: MAP kinase-activated protein kinase 3 (Homo sapiens) (UniProt Q16644); test: Inhibition of human MAPKAPK3 assessed as remaining enzyme activity at 50 uM after 30 mins by 33P-ATP filter-binding assay
[3] = target: Dual specificity mitogen-activated protein kinase kinase 6 (Homo sapiens) (UniProt P52564); test: Inhibition of human MKK6 (2 to 334 residues) assessed as remaining enzyme activity at 50 uM after 30 mins by 33P-ATP filter-binding assay
[4] = Cytotoxicity against human PC3 cells assessed as cell growth inhibition after 48 hrs by MTT assay; format: functional; conditions: PC-3, 48 h
[5] = target: Discoidin domain-containing receptor 2 (Homo sapiens) (UniProt Q16832); test: Inhibition of human DDR2 (467 to 854 residues) assessed as remaining enzyme activity at 50 uM after 30 mins by 33P-ATP filter-binding assay
[6] = tested on: HL-60; test: Induction of apoptosis in human HL60 cells assessed as apoptotic cells at 10 uM (reference value: 1 %); format: functional
[7] = target: Serine/threonine-protein kinase Nek2 (Homo sapiens) (UniProt P51955); test: Inhibition of human NEK2a (1 to 445 residues) assessed as remaining enzyme activity at 50 uM after 30 mins by 33P-ATP filter-binding assay
[8] = target: Angiopoietin-1 receptor (Homo sapiens) (UniProt Q02763); test: Inhibition of human TIE2 (771 to 1124 residues) assessed as remaining enzyme activity at 50 uM after 30 mins by 33P-ATP filter-binding assay
[9] = target: Homeodomain-interacting protein kinase 1 (Homo sapiens) (UniProt Q86Z02); test: Inhibition of human HIPK1 (158 to 555 residues) assessed as remaining enzyme activity at 50 uM after 30 mins by 33P-ATP filter-binding assay
[10] = target: Myosin light chain kinase, smooth muscle (Homo sapiens) (UniProt Q15746); test: Inhibition of human SmMLCK (475 to 838 residues) assessed as remaining enzyme activity at 50 uM after 30 mins by 33P-ATP filter-binding assay
[11] = target: Serine/threonine-protein kinase 3 (Homo sapiens) (UniProt Q13188); test: Inhibition of human MST2 (2 to 491 residues) assessed as remaining enzyme activity at 50 uM after 30 mins by 33P-ATP filter-binding assay
[12] = Distribution coefficient, logD of the compound in water/PBS buffer at pH 7.4 at 25 degC after 20 mins by shake flask method; format: physicochemical
[13] = target: Ribosomal protein S6 kinase alpha-5 (Homo sapiens) (UniProt O75582); test: Inhibition of human MSK1 (2 to 802 residues) assessed as remaining enzyme activity at 50 uM after 30 mins by 33P-ATP filter-binding assay
[14] = target: Mitogen-activated protein kinase 14 (Homo sapiens) (UniProt Q16539); test: Inhibition of human p38alpha MAPK (1-360 residues) assessed as remaining enzyme activity at 50 uM after 30 mins by 33P-ATP filter-binding assay
[15] = target: Ephrin type-B receptor 1 (Homo sapiens) (UniProt P54762); test: Inhibition of human EPHB1 (565 to 984 residues) assessed as remaining enzyme activity at 50 uM after 30 mins by 33P-ATP filter-binding assay
[16] = Cell cycle arrest in human HL60 cells assessed as accumulation at G2 phase at 1 uM (reference value: 5 %); format: functional, cell-based; conditions: HL-60
[17] = Cell cycle arrest in human HL60 cells assessed as accumulation at G2 phase at 5 uM (reference value: 5 %); format: functional, cell-based; conditions: HL-60
[18] = target: Mitogen-activated protein kinase 3 (Homo sapiens) (UniProt P27361); test: Inhibition of human ERK1 (1 to 379) assessed as remaining enzyme activity at 50 uM after 30 mins by 33P-ATP filter-binding assay
[19] = target: Rho-associated protein kinase 2 (Rattus norvegicus) (UniProt Q62868); test: Inhibition of rat ROCK2 (2 to 543 residues) assessed as remaining enzyme activity at 50 uM after 30 mins by 33P-ATP filter-binding assay
[20] = target: Ephrin type-A receptor 2 (Homo sapiens) (UniProt P29317); test: Inhibition of human EPHA2 (591 to 976 residues) assessed as remaining enzyme activity at 50 uM after 30 mins by 33P-ATP filter-binding assay
[21] = target: Homeodomain-interacting protein kinase 2 (Homo sapiens) (UniProt Q9H2X6); test: Inhibition of human HIPK2 (165 to 564 residues) assessed as remaining enzyme activity at 50 uM after 30 mins by 33P-ATP filter-binding assay
[22] = target: Vascular endothelial growth factor receptor (Homo sapiens) (UniProt P17948+P35916+P35968); test: Inhibition of human VEGFR assessed as remaining enzyme activity at 50 uM after 30 mins by 33P-ATP filter-binding assay; format: protein assay
[23] = target: Serine/threonine-protein kinase Sgk1 (Homo sapiens) (UniProt O00141); test: Inhibition of human SGK1 assessed as remaining enzyme activity at 50 uM after 30 mins by 33P-ATP filter-binding assay
[24] = target: Dual specificity mitogen-activated protein kinase kinase 1 (Homo sapiens) (UniProt Q02750); test: Inhibition of human MKK1 (2 to 393 residues) assessed as remaining enzyme activity at 50 uM after 30 mins by 33P-ATP filter-binding assay
[25] = target: Dual specificity protein kinase CLK2 (Homo sapiens) (UniProt P49760); test: Inhibition of human CLK2 (138 to 499 residues) assessed as remaining enzyme activity at 50 uM after 30 mins by 33P-ATP filter-binding assay
[26] = target: Serine/threonine-protein kinase PAK 4 (Homo sapiens) (UniProt O96013); test: Inhibition of human PAK4 (2 to 591 residues) assessed as remaining enzyme activity at 50 uM after 30 mins by 33P-ATP filter-binding assay
[27] = target: Dual specificity testis-specific protein kinase 1 (Homo sapiens) (UniProt Q15569); test: Inhibition of human TESK1 (1 to 345 residues) assessed as remaining enzyme activity at 50 uM after 30 mins by 33P-ATP filter-binding assay
[28] = target: Serine/threonine-protein kinase SIK3 (Homo sapiens) (UniProt Q9Y2K2); test: Inhibition of human SIK3 (2 to 1369 residues) assessed as remaining enzyme activity at 50 uM after 30 mins by 33P-ATP filter-binding assay
[29] = tested on: K562; test: Cytotoxicity against human K562 cells assessed as cell growth inhibition after 48 hrs by MTT assay; format: functional; conditions: K562, 48 h
[30] = target: Serine/threonine-protein kinase Nek6 (Homo sapiens) (UniProt Q9HC98); test: Inhibition of human NEK6 (8 to 313 residues) assessed as remaining enzyme activity at 50 uM after 30 mins by 33P-ATP filter-binding assay
Sequence of Serine/threonine-protein kinase Nek6 (Homo sapiens) (Q9HC98 whole entry, the tested form may be a part): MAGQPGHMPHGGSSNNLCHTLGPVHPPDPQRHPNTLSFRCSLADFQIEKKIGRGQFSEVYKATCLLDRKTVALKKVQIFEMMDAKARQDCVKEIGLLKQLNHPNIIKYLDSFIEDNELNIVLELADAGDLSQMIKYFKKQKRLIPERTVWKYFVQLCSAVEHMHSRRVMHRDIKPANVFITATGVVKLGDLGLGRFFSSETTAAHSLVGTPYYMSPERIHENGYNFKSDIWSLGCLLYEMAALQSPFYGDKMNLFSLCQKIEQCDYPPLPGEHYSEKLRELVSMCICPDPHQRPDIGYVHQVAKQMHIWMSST

Sequence of Mitogen-activated protein kinase 3 (Homo sapiens) (P27361 whole entry, the tested form may be a part): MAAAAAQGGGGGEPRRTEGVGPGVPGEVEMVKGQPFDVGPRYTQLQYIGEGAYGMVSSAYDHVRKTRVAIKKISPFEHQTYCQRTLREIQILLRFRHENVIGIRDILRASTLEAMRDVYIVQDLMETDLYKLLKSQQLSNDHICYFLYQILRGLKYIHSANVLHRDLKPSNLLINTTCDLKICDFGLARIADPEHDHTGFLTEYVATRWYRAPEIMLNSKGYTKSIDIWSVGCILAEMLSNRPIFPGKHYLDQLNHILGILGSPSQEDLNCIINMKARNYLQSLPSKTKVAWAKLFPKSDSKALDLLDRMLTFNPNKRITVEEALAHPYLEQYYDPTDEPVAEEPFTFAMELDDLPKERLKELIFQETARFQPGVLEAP
Sequence of Rho-associated protein kinase 2 (Rattus norvegicus) (Q62868 whole entry, looked up, the tested form may be a part): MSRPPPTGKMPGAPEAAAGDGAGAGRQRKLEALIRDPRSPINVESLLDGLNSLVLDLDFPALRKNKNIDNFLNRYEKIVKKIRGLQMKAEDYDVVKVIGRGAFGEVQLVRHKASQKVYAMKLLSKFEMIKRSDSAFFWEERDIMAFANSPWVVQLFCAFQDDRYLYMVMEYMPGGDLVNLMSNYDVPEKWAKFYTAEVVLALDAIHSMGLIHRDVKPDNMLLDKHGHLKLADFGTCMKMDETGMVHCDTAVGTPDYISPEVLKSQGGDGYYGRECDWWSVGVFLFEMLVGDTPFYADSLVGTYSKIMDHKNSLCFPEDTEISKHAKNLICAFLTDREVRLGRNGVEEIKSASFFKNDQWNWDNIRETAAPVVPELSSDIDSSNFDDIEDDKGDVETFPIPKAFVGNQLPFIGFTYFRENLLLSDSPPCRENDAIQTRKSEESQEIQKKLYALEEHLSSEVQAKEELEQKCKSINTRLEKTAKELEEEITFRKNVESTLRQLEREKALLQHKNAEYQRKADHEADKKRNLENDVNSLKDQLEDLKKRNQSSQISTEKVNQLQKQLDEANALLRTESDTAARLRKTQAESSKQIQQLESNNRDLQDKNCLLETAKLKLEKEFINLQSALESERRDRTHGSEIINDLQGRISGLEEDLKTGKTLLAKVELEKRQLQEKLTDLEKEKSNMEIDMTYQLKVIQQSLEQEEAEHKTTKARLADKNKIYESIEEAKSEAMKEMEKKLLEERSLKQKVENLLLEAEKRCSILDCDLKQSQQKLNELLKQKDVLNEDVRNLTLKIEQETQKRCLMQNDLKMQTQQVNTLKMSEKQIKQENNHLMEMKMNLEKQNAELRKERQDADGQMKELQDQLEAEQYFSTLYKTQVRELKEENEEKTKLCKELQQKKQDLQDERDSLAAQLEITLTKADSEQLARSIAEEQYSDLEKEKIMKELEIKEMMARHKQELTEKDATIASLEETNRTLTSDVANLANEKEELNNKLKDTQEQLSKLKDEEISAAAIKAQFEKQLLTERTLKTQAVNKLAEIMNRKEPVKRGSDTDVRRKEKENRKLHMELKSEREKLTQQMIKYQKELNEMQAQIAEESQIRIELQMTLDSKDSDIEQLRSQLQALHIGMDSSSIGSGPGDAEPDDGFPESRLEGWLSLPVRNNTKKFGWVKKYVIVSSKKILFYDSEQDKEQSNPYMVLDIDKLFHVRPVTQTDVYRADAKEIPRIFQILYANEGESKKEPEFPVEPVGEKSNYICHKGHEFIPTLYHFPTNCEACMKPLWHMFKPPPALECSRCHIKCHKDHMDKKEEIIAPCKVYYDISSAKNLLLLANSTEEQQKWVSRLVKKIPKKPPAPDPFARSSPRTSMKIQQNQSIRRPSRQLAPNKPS
Sequence of Ephrin type-B receptor 1 (Homo sapiens) (P54762 whole entry, the tested form may be a part): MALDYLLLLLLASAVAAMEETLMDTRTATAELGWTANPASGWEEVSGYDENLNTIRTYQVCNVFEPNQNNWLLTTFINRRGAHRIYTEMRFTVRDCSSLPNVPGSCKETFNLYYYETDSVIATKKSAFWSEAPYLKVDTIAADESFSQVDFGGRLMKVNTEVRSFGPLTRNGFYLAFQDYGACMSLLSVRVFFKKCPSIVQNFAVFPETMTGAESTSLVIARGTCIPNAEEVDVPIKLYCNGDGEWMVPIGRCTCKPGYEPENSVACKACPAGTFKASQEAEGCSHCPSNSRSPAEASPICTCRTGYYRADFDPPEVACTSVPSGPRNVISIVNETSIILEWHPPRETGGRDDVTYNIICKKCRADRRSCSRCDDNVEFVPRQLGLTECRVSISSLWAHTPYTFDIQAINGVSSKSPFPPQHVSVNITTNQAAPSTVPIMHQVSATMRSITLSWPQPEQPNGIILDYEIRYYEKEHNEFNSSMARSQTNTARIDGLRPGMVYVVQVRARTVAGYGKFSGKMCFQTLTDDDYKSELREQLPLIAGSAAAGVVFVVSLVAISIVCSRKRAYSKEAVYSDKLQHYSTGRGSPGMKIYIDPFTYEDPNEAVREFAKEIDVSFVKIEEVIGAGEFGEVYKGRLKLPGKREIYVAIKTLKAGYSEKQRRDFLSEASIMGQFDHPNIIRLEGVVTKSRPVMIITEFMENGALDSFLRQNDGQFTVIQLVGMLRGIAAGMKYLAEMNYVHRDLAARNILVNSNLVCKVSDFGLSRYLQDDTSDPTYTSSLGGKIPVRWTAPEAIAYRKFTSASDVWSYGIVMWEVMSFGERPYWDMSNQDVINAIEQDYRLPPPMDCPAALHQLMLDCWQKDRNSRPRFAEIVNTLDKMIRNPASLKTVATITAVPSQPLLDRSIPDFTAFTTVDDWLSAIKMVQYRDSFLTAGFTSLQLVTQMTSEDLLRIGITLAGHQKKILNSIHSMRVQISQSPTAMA
Sequence of Serine/threonine-protein kinase SIK3 (Homo sapiens) (Q9Y2K2 whole entry, looked up, the tested form may be a part): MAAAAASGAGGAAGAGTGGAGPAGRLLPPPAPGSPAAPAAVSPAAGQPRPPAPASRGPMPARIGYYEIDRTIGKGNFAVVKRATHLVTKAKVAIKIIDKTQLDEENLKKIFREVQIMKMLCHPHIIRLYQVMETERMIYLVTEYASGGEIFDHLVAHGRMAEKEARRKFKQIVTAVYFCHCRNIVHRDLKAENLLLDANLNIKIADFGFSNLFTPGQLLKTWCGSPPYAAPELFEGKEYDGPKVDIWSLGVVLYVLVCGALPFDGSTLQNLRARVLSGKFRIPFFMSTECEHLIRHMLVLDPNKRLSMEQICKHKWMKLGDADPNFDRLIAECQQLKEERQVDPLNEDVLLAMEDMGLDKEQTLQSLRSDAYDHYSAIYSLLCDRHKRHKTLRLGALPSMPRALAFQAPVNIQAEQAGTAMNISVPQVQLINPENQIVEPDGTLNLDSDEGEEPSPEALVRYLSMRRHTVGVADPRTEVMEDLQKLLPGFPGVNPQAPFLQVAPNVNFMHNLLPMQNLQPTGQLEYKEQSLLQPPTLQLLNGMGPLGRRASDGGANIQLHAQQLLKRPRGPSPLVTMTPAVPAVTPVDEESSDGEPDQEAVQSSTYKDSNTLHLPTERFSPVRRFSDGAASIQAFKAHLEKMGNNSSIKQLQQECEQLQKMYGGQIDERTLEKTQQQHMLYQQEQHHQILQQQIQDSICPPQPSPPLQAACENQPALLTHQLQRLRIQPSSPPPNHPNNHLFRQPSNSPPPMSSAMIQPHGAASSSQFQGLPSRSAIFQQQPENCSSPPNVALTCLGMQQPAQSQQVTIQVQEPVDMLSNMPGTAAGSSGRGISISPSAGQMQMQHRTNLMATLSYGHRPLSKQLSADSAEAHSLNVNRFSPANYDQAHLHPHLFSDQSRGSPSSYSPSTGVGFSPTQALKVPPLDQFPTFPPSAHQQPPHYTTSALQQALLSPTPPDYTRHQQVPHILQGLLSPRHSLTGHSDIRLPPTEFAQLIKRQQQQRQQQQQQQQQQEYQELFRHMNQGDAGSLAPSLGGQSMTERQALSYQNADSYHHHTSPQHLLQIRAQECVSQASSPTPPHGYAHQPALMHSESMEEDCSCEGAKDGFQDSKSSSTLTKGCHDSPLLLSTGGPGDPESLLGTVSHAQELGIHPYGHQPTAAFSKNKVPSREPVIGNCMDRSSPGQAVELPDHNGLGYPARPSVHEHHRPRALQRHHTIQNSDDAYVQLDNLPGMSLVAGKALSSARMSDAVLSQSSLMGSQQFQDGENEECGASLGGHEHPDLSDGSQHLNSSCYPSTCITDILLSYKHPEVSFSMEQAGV
Sequence of Serine/threonine-protein kinase 3 (Homo sapiens) (Q13188 whole entry, the tested form may be a part): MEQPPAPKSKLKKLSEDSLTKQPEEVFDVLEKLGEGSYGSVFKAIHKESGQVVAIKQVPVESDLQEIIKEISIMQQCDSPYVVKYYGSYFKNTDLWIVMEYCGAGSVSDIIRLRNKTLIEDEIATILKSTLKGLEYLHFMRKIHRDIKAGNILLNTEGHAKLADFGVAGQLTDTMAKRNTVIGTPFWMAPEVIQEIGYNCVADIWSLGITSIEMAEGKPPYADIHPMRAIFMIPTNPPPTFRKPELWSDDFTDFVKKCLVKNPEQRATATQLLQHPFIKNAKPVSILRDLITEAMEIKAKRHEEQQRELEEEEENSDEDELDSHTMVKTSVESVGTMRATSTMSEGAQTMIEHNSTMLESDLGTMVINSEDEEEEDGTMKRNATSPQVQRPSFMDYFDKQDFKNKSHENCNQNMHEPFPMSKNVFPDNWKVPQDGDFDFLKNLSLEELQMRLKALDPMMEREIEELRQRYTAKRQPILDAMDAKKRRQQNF

Cc1cc(=O)c2c(O)cc(O)c([C@H]3CCN(C)C[C@H]3O)c2o1 [ROHITUKINE]
Activity [1]: 79%
Activity [2]: 83%
Activity [3]: 89%
GI50 [4]: 19 µM
Activity [5]: 79%
Activity [6]: 10%
Activity [7]: 89%
Activity [8]: 80%
Activity [9]: 96%
Activity [10]: 78%
Activity [11]: 46%
logD at 20 min [12]: -0.55
Activity [13]: 30%
Activity [14]: 69%
Activity [15]: 54%
Activity [16]: 13%
Activity [17]: 11%
Activity [18]: 86%
Activity [19]: 64%
Activity [20]: 38%
Activity [21]: 76%
Activity [22]: 18%
Activity [23]: 92%
Activity [24]: 27%
Activity [25]: 45%
Activity [26]: 83%
Activity [27]: 88%
Activity [28]: 28%
GI50 [29]: 24 µM
Activity [30]: 84%
